Experimental data published in patent US10501518B2 (priority 2013, dated 2019).
Like-named read-outs stand apart in the source and are kept apart here.

How the values were obtained:
[1] = target: T1, WT human PTHR-1 (Homo sapiens, UniProt Q03431); experiment: cAMP GloSensor dose-response in GP-2.3 cells expressing human PTHR-1; assay type: cell-based; conditions: for cAMP (hPTHR-1) Max: luminescence counts per second relative to PTH(1-34); for cAMP (hPTHR-1) Max / Max: 12-16 minutes after ligand addition; for Fold nM PTH(1-34): EC50 relative to PTH(1-34)
T1 construct: bioactivity of the resulting compound in full-length hPTHR-1 and a truncated version; expressed in transfected cells
T1 sequence (Q03431 27-593): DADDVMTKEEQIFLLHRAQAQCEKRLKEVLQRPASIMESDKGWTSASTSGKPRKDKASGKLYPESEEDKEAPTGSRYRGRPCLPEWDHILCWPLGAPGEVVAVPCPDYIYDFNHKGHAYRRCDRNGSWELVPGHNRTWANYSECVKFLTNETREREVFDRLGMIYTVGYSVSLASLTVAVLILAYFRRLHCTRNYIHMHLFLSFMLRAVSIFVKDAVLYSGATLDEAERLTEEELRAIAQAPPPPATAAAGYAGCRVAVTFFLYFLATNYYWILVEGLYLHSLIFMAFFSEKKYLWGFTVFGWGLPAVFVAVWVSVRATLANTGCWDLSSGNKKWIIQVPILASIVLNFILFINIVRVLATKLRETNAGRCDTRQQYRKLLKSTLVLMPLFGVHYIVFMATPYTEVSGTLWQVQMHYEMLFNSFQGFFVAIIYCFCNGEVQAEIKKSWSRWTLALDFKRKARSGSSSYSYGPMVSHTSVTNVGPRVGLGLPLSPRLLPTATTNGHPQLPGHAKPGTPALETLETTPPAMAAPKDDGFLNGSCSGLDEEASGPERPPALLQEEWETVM
How it was run: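 Confluent cells preloaded with 0.5 mM d-luciferin at room temperature until luminescence baseline stabilised (30 min), then given varying agonist concentrations. Luminescence time course recorded after α/β-peptide addition. Means ±SEM of n>4 experiments, each in duplicate.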

[2] = target: T2, RG form of rat PTHR-1 (Rattus norvegicus, UniProt P25961); experiment: Radio-ligand competition binding to RG form of rat PTHR-1
T2 construct: expressed in transfected cells; host or cells: COS-7
T2 sequence (P25961 27-591): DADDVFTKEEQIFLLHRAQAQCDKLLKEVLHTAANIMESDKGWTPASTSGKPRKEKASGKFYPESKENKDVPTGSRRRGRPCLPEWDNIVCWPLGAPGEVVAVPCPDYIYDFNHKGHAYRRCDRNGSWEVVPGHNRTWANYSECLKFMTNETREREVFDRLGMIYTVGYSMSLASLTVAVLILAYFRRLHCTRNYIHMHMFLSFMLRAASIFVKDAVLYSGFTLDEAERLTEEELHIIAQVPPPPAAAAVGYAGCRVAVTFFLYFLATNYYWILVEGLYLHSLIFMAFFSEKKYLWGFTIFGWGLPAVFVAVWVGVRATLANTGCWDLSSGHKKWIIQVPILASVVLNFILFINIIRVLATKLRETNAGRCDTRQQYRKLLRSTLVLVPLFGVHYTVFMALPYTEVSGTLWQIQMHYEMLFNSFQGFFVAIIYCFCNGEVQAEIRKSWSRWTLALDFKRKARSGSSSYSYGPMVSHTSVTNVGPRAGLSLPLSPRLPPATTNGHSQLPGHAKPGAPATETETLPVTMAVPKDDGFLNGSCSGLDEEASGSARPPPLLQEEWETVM
Description: (§1) Data are means (±SEM) of n≥4 experiments, each performed in duplicate.

[3] = target: T3, R^0 form of human PTHR-1 (Homo sapiens, UniProt Q03431); experiment: Radio-ligand competition binding to R^0 form of human PTHR-1 (COS-7 membranes, 125I-PTH(1-34) tracer, GTPγS); conditions: for R^0/RG: Table 4, ratio of R^0 to RG IC50, human PTHR-1; for affinity for the R^0 state of hPTHR-1, in words: compared with PTH(1-34)
T3 construct: expressed in transfected cells; host or cells: COS-7
T3 sequence (Q03431 27-593): T1 sequence (Q03431 27-593)
Description: as §1

[4] = target: T4, RG form of human PTHR-1 (Homo sapiens, UniProt Q03431); experiment: Radio-ligand competition binding to RG form of human PTHR-1 (COS-7 membranes, 125I-M-PTH(1-15) tracer, high affinity Gαs mutant)
T4 construct: expressed in transfected cells; host or cells: COS-7
T4 sequence (Q03431 27-593): T1 sequence (Q03431 27-593)
Description: as §1

[5] = target: T5, R^0 form of rat PTHR-1 (Rattus norvegicus, UniProt P25961); experiment: Radio-ligand competition binding to R^0 form of rat PTHR-1; conditions: for R^0/RG: ratio of R^0 to RG IC50, rat PTHR-1; for affinity for the R^0 state of rPTHR-1, in words: compared with PTH(1-34)
T5 construct: expressed in transfected cells; host or cells: COS-7
T5 sequence (P25961 27-591): T2 sequence (P25961 27-591)
Description: as §1

[6] = Table 6, GP-2.3 cells, mean ± SEM
[7] = Table 2, read-out: RG IC50, nM, Binding (rPTHR-1)
[8] = Table 2, read-out: R^0 IC50, nM, Binding (rPTHR-1)
[9] = Table 5, rat PTHR-1, mean ± SEM, read-out: R^0 -log (IC50) (converted)

Structure (SMILES)	EC50 ([1]; Table 1, GP-2.3 cells, read-out: cAMP (hPTHR-1) EC50) [nM]	cAMP (hPTHR-1) Max ([1]; Table 1)	Fold nM PTH(1-34) ([1]; Table 6)	Max [1, 6]	IC50 [2, 7] [nM]	IC50 ([2]; Table 5, rat PTHR-1, mean ± SEM, read-out: RG -log (IC50) (converted)) [nM]	IC50 ([3]; Table 1, COS-7 membranes, 125I-PTH(1-34) tracer, GTPγS, read-out: R^0 IC50, nM, Binding (hPTHR-1)) [nM]	R^0/RG [3]	affinity for the R^0 state of hPTHR-1, in words [3]	IC50 ([4]; Table 1, 125I-M-PTH(1-15) tracer, Gαs mutant, read-out: RG IC50, nM, Binding (hPTHR-1)) [nM]	IC50 [5, 8] [nM]	IC50 [5, 9] [nM]	R^0/RG ([5]; Table 5)	affinity for the R^0 state of rPTHR-1, in words [5]	pEC50 [1, 6]	IC50 [3] [nM]	IC50 [4] [nM]
CC[C@H](C)[C@H](NC(=O)[C@H](CCC(=O)O)NC(=O)[C@H](CO)NC(=O)[C@@H](NC(=O)[C@@H](N)CO)C(C)C)C(=O)N[C@@H](CCC(N)=O)C(=O)N[C@@H](CC(C)C)C(=O)N[C@@H](CCSC)C(=O)N[C@@H](Cc1c[nH]cn1)C(=O)N[C@@H](CC(N)=O)C(=O)N[C@@H](CC(C)C)C(=O)NCC(=O)N[C@@H](CCCCN)C(=O)N[C@@H](Cc1c[nH]cn1)C(=O)N[C@@H](CC(C)C)C(=O)N[C@@H](CC(N)=O)CC(=O)N[C@@H](CO)C(=O)N[C@@H](CCSC)C(=O)N[C@@H](CCC(=O)O)C(=O)N[C@@H](CCCNC(=N)N)CC(=O)N[C@H](C(=O)N[C@@H](CCC(=O)O)C(=O)N[C@@H](Cc1c[nH]c2ccccc12)C(=O)N[C@H](CC(=O)N[C@@H](CCCNC(=N)N)C(=O)N[C@@H](CCCCN)C(=O)N[C@@H](CCCCN)C(=O)N[C@H](CC(=O)N[C@@H](CCC(N)=O)C(=O)N[C@@H](CC(=O)O)C(=O)N[C@H](C(=O)N[C@@H](CCC(N)=O)CC(=O)N[C@@H](CC(N)=O)C(=O)N[C@@H](Cc1ccccc1)C(N)=O)C(C)C)CC(C)C)CC(C)C)C(C)C [B5]	0.11	0.98	0.63	212 ± 30 luminescence counts per second × 10^−3	4.2	4.27	19	225	an order of magnitude more weakly	0.086	65	66.1	15	significantly weaker affinity	–	–	–
CC[C@H](C)[C@H](NC(=O)[C@H](CCC(=O)O)NC(=O)[C@H](CO)NC(=O)[C@@H](NC(=O)[C@@H](N)CO)C(C)C)C(=O)N[C@@H](CCC(N)=O)C(=O)N[C@@H](CC(C)C)C(=O)N[C@@H](CCSC)C(=O)N[C@@H](Cc1cnc[nH]1)C(=O)N[C@@H](CC(N)=O)C(=O)N[C@@H](CC(C)C)C(=O)NCC(=O)N[C@@H](CCCCN)C(=O)N[C@H](CC(=O)N[C@@H](CC(C)C)C(=O)N[C@@H](CC(N)=O)C(=O)N[C@@H](CO)C(=O)N[C@@H](CCSC)CC(=O)N[C@@H](CCC(=O)O)C(=O)N[C@@H](CCCNC(=N)N)C(=O)N[C@H](C(=O)N[C@@H](CCC(=O)O)CC(=O)N[C@@H](Cc1c[nH]c2ccccc12)C(=O)N[C@@H](CC(C)C)C(=O)N[C@@H](CCCNC(=N)N)C(=O)N[C@@H](CCCCN)CC(=O)N[C@@H](CCCCN)C(=O)N[C@@H](CC(C)C)C(=O)N[C@@H](CCC(N)=O)C(=O)N[C@@H](CC(=O)O)CC(=O)N[C@H](C(=O)N[C@@H](Cc1cnc[nH]1)C(=O)N[C@@H](CC(N)=O)C(=O)N[C@H](CC(N)=O)Cc1ccccc1)C(C)C)C(C)C)Cc1c[nH]c2ccccc12 [D6]	–	0.87	0.76	189 ± 29 luminescence counts per second × 10^−3	0.81	–	–	31	comparably to PTH(1-34)	–	6.1	6.03	8	somewhat weaker affinity	9.89 ± 0.08	2	0.065
CC[C@H](C)[C@H](NC(=O)[C@H](CCC(=O)O)NC(=O)[C@H](CO)NC(=O)[C@@H](NC(=O)[C@@H](N)CO)C(C)C)C(=O)N[C@@H](CCC(N)=O)C(=O)N[C@@H](CC(C)C)C(=O)N[C@@H](CCSC)C(=O)N[C@@H](Cc1cnc[nH]1)C(=O)N[C@@H](CC(N)=O)C(=O)N[C@@H](CC(C)C)C(=O)NCC(=O)N[C@@H](CCCCN)C(=O)N[C@@H](Cc1cnc[nH]1)C(=O)N[C@@H](CC(C)C)C(=O)N[C@@H](CC(N)=O)C(=O)N[C@@H](CO)C(=O)N[C@@H](CCSC)C(=O)N[C@@H](CCC(=O)O)C(=O)N[C@@H](CCCN=C(N)N)C(=O)N[C@H](C(=O)N[C@@H](CCC(=O)O)C(=O)N[C@@H](Cc1c[nH]c2ccccc12)C(=O)N[C@@H](CC(C)C)C(=O)N[C@@H](CCCN=C(N)N)C(=O)N[C@@H](CCCCN)C(=O)N[C@@H](CCCCN)C(=O)N[C@@H](CC(C)C)C(=O)N[C@@H](CCC(N)=O)C(=O)N[C@@H](CC(=O)O)C(=O)N[C@H](C(=O)N[C@@H](Cc1cnc[nH]1)C(=O)N[C@@H](CC(N)=O)C(=O)N[C@@H](Cc1ccccc1)C(=O)O)C(C)C)C(C)C [PTH(1-34), reference compound]	–	1.00	–	217 ± 20 luminescence counts per second × 10^−3	–	–	–	–	–	–	–	–	–	–	–	–	–
